Tested on: SCW-arthritis rats
Experiment: Two-dimensional subchondral bone analysis (structure, connectivity/strut analysis, plate thickness) of proximal tibia, SCW-arthritis rats
Type: in vivo, Lewis type rats
[1] = SCW + 20 mg, Middle section/lateral
[2] = SCW + 20 mg, Middle section/medial
[3] = SCW + 200 mg, Middle section/lateral
[4] = SCW + 200 mg, Middle section/medial
[5] = SCW + 200 mg, Posterior/lateral

CCCC(=O)N[C@H]1C(O)O[C@H](CO)[C@@H](O)[C@@H]1O (stereo partly drawn) [GlcNBu, N-butyryl-D-glucosamine]
2D-BV/TV % loss (SCW + 20 mg, Anterior/lateral): 40%
2D-BV/TV Mean ± SEM (SCW + 20 mg, Anterior/lateral): 23.7 ± 2.3%
2D-Tb.N % loss (SCW + 20 mg, Anterior/lateral): 21%
2D-Tb.N Mean ± SEM (SCW + 20 mg, Anterior/lateral): 5.8 ± 0.4 /mm
2D-Tb.Th % loss (SCW + 20 mg, Anterior/lateral): 32%
2D-Tb.Th Mean ± SEM (SCW + 20 mg, Anterior/lateral): 38.7 ± 1.7 um
End Points % loss (SCW + 20 mg, Anterior/lateral): −134%
End Points Mean ± SEM (SCW + 20 mg, Anterior/lateral): 36.2 ± 2.5 1/mm2
Multiple points % loss (SCW + 20 mg, Anterior/lateral): 43%
Multiple points Mean ± SEM (SCW + 20 mg, Anterior/lateral): 9.3 ± 1.6 1/mm2
Node-node struts % loss (SCW + 20 mg, Anterior/lateral): 75%
Node-node struts Mean ± SEM (SCW + 20 mg, Anterior/lateral): 0.8 ± 0.2 mm/mm2
Total Strut length % loss (SCW + 20 mg, Anterior/lateral): 30%
Total Strut length Mean ± SEM (SCW + 20 mg, Anterior/lateral): 5.3 ± 0.4 mm/mm2
2D-BV/TV % loss (SCW + 20 mg, Anterior/medial): 33%
2D-BV/TV Mean ± SEM (SCW + 20 mg, Anterior/medial): 27.2 ± 1.4%
2D-Tb.N % loss (SCW + 20 mg, Anterior/medial): 12%
2D-Tb.N Mean ± SEM (SCW + 20 mg, Anterior/medial): 5.6 ± 0.3 /mm
2D-Tb.Th % loss (SCW + 20 mg, Anterior/medial): 29%
2D-Tb.Th Mean ± SEM (SCW + 20 mg, Anterior/medial): 48.6 ± 1.6 um
End Points % loss (SCW + 20 mg, Anterior/medial): −67%
End Points Mean ± SEM (SCW + 20 mg, Anterior/medial): 22.5 ± 1.7 1/mm2
Multiple points % loss (SCW + 20 mg, Anterior/medial): 42%
Multiple points Mean ± SEM (SCW + 20 mg, Anterior/medial): 9.2 ± 1.0 1/mm2
Node-node struts % loss (SCW + 20 mg, Anterior/medial): 47%
Node-node struts Mean ± SEM (SCW + 20 mg, Anterior/medial): 1.2 ± 0.2 mm/mm2
Total Strut length % loss (SCW + 20 mg, Anterior/medial): 14%
Total Strut length Mean ± SEM (SCW + 20 mg, Anterior/medial): 5.1 ± 0.3 mm/mm2
2D-BV/TV % loss [1]: 13%
2D-BV/TV Mean ± SEM [1]: 24.9 ± 1.6%
2D-Tb.N % loss [1]: 2%
2D-Tb.N Mean ± SEM [1]: 4.6 ± 0.2 /mm
2D-Tb.Th % loss [1]: 11%
2D-Tb.Th Mean ± SEM [1]: 54.3 ± 2.8 um
End Points % loss [1]: −69%
End Points Mean ± SEM [1]: 17.5 ± 1.9 1/mm2
Multiple points % loss [1]: 16%
Multiple points Mean ± SEM [1]: 8.3 ± 1.1 1/mm2
Node-node struts % loss [1]: 3%
Node-node struts Mean ± SEM [1]: 1.0 ± 0.2 mm/mm2
Total Strut length % loss [1]: 14%
Total Strut length Mean ± SEM [1]: 4.0 ± 0.2 mm/mm2
2D-BV/TV % loss [2]: 31%
2D-BV/TV Mean ± SEM [2]: 29.2 ± 2.3%
2D-Tb.N % loss [2]: 1%
2D-Tb.N Mean ± SEM [2]: 4.6 ± 0.2 /mm
2D-Tb.Th % loss [2]: 30%
2D-Tb.Th Mean ± SEM [2]: 63.0 ± 4.0 um
End Points % loss [2]: −184%
End Points Mean ± SEM [2]: 14.1 ± 2.3 1/mm2
Multiple points % loss [2]: 13%
Multiple points Mean ± SEM [2]: 9.9 ± 1.1 1/mm2
Node-node struts % loss [2]: 42%
Node-node struts Mean ± SEM [2]: 1.2 ± 0.2 mm/mm2
Total Strut length % loss [2]: 11%
Total Strut length Mean ± SEM [2]: 4.2 ± 0.3 mm/mm2
2D-BV/TV % loss (SCW + 20 mg, Posterior/lateral): 21%
2D-BV/TV Mean ± SEM (SCW + 20 mg, Posterior/lateral): 24.9 ± 1.5%
2D-Tb.N % loss (SCW + 20 mg, Posterior/lateral): 7%
2D-Tb.N Mean ± SEM (SCW + 20 mg, Posterior/lateral): 4.8 ± 0.2 /mm
2D-Tb.Th % loss (SCW + 20 mg, Posterior/lateral): 19%
2D-Tb.Th Mean ± SEM (SCW + 20 mg, Posterior/lateral): 51.8 ± 1.6 um
End Points % loss (SCW + 20 mg, Posterior/lateral): −100%
End Points Mean ± SEM (SCW + 20 mg, Posterior/lateral): 20.0 ± 1.8 1/mm2
Multiple points % loss (SCW + 20 mg, Posterior/lateral): 55%
Multiple points Mean ± SEM (SCW + 20 mg, Posterior/lateral): 7.8 ± 0.8 1/mm2
Node-node struts % loss (SCW + 20 mg, Posterior/lateral): 30%
Node-node struts Mean ± SEM (SCW + 20 mg, Posterior/lateral): 0.9 ± 0.1 mm/mm2
Total Strut length % loss (SCW + 20 mg, Posterior/lateral): 11%
Total Strut length Mean ± SEM (SCW + 20 mg, Posterior/lateral): 4.3 ± 0.2 mm/mm2
2D-BV/TV % loss (SCW + 20 mg, Posterior/medial): 20%
2D-BV/TV Mean ± SEM (SCW + 20 mg, Posterior/medial): 36.2 ± 1.6%
2D-Tb.N % loss (SCW + 20 mg, Posterior/medial): 3%
2D-Tb.N Mean ± SEM (SCW + 20 mg, Posterior/medial): 6.2 ± 0.2 /mm
2D-Tb.Th % loss (SCW + 20 mg, Posterior/medial): 23%
2D-Tb.Th Mean ± SEM (SCW + 20 mg, Posterior/medial): 59.3 ± 2.3 um
End Points % loss (SCW + 20 mg, Posterior/medial): −216%
End Points Mean ± SEM (SCW + 20 mg, Posterior/medial): 16.2 ± 2.1 1/mm2
Multiple points % loss (SCW + 20 mg, Posterior/medial): 36%
Multiple points Mean ± SEM (SCW + 20 mg, Posterior/medial): 12.6 ± 1.4 1/mm2
Node-node struts % loss (SCW + 20 mg, Posterior/medial): 37%
Node-node struts Mean ± SEM (SCW + 20 mg, Posterior/medial): 1.7 ± 0.3 mm/mm2
Total Strut length % loss (SCW + 20 mg, Posterior/medial): 10%
Total Strut length Mean ± SEM (SCW + 20 mg, Posterior/medial): 5.7 ± 0.3 mm/mm2
2D-BV/TV % loss (SCW + 200 mg, Anterior/lateral): 37%
2D-BV/TV Mean ± SEM (SCW + 200 mg, Anterior/lateral): 24.8 ± 3.4%
2D-Tb.N % loss (SCW + 200 mg, Anterior/lateral): 20%
2D-Tb.N Mean ± SEM (SCW + 200 mg, Anterior/lateral): 6.0 ± 0.7 /mm
2D-Tb.Th % loss (SCW + 200 mg, Anterior/lateral): 30%
2D-Tb.Th Mean ± SEM (SCW + 200 mg, Anterior/lateral): 39.7 ± 2.9 um
End Points % loss (SCW + 200 mg, Anterior/lateral): −120%
End Points Mean ± SEM (SCW + 200 mg, Anterior/lateral): 34.1 ± 4.1 1/mm2
Multiple points % loss (SCW + 200 mg, Anterior/lateral): 37%
Multiple points Mean ± SEM (SCW + 200 mg, Anterior/lateral): 10.3 ± 2.7 1/mm2
Node-node struts % loss (SCW + 200 mg, Anterior/lateral): 64%
Node-node struts Mean ± SEM (SCW + 200 mg, Anterior/lateral): 1.2 ± 0.4 mm/mm2
Total Strut length % loss (SCW + 200 mg, Anterior/lateral): 28%
Total Strut length Mean ± SEM (SCW + 200 mg, Anterior/lateral): 5.4 ± 0.7 mm/mm2
2D-BV/TV % loss (SCW + 200 mg, Anterior/medial): 31%
2D-BV/TV Mean ± SEM (SCW + 200 mg, Anterior/medial): 27.8 ± 2.7%
2D-Tb.N % loss (SCW + 200 mg, Anterior/medial): 10%
2D-Tb.N Mean ± SEM (SCW + 200 mg, Anterior/medial): 5.7 ± 0.6 /mm
2D-Tb.Th % loss (SCW + 200 mg, Anterior/medial): 28%
2D-Tb.Th Mean ± SEM (SCW + 200 mg, Anterior/medial): 49.5 ± 4.3 um
End Points % loss (SCW + 200 mg, Anterior/medial): −99%
End Points Mean ± SEM (SCW + 200 mg, Anterior/medial): 26.7 ± 5.7 1/mm2
Multiple points % loss (SCW + 200 mg, Anterior/medial): 32%
Multiple points Mean ± SEM (SCW + 200 mg, Anterior/medial): 10.7 ± 1.7 1/mm2
Node-node struts % loss (SCW + 200 mg, Anterior/medial): 45%
Node-node struts Mean ± SEM (SCW + 200 mg, Anterior/medial): 1.3 ± 0.3 mm/mm2
Total Strut length % loss (SCW + 200 mg, Anterior/medial): 15%
Total Strut length Mean ± SEM (SCW + 200 mg, Anterior/medial): 5.1 ± 0.5 mm/mm2
2D-BV/TV % loss [3]: 15%
2D-BV/TV Mean ± SEM [3]: 24.1 ± 2.1%
2D-Tb.N % loss [3]: 0%
2D-Tb.N Mean ± SEM [3]: 4.7 ± 0.3 /mm
2D-Tb.Th % loss [3]: 16%
2D-Tb.Th Mean ± SEM [3]: 51.3 ± 2.8 um
End Points % loss [3]: −92%
End Points Mean ± SEM [3]: 19.8 ± 1.7 1/mm2
Multiple points % loss [3]: 2%
Multiple points Mean ± SEM [3]: 9.5 ± 1.9 1/mm2
Node-node struts % loss [3]: 15%
Node-node struts Mean ± SEM [3]: 0.9 ± 0.2 mm/mm2
Total Strut length % loss [3]: 9%
Total Strut length Mean ± SEM [3]: 4.2 ± 0.2 mm/mm2
2D-BV/TV % loss [4]: 17%
2D-BV/TV Mean ± SEM [4]: 35.1 ± 4.1%
2D-Tb.N % loss [4]: −9%
2D-Tb.N Mean ± SEM [4]: 5.1 ± 0.2 /mm
2D-Tb.Th % loss [4]: 24%
2D-Tb.Th Mean ± SEM [4]: 68.5 ± 6.3 um
End Points % loss [4]: −145%
End Points Mean ± SEM [4]: 12.2 ± 2.1 1/mm2
Multiple points % loss [4]: −11%
Multiple points Mean ± SEM [4]: 12.6 ± 1.8 1/mm2
Node-node struts % loss [4]: 4%
Node-node struts Mean ± SEM [4]: 2.0 ± 0.3 mm/mm2
Total Strut length % loss [4]: −2%
Total Strut length Mean ± SEM [4]: 4.9 ± 0.3 mm/mm2
2D-BV/TV % loss [5]: 27%
2D-BV/TV Mean ± SEM [5]: 23.2 ± 1.0%
2D-Tb.N % loss [5]: 13%
2D-Tb.N Mean ± SEM [5]: 4.5 ± 0.2 /mm
2D-Tb.Th % loss [5]: 22%
2D-Tb.Th Mean ± SEM [5]: 49.8 ± 1.7 um
End Points % loss [5]: −114%
End Points Mean ± SEM [5]: 21.4 ± 1.7 1/mm2
Multiple points % loss [5]: 59%
Multiple points Mean ± SEM [5]: 7.1 ± 0.7 1/mm2
Node-node struts % loss [5]: 46%
Node-node struts Mean ± SEM [5]: 0.7 ± 0.1 mm/mm2
Total Strut length % loss [5]: 16%
Total Strut length Mean ± SEM [5]: 4.0 ± 0.2 mm/mm2
2D-BV/TV % loss (SCW + 200 mg, Posterior/medial): 21%
2D-BV/TV Mean ± SEM (SCW + 200 mg, Posterior/medial): 35.9 ± 2.2%
2D-Tb.N % loss (SCW + 200 mg, Posterior/medial): 5%
2D-Tb.N Mean ± SEM (SCW + 200 mg, Posterior/medial): 6.1 ± 0.2 /mm
2D-Tb.Th % loss (SCW + 200 mg, Posterior/medial): 21%
2D-Tb.Th Mean ± SEM (SCW + 200 mg, Posterior/medial): 61.0 ± 3.6 um
End Points % loss (SCW + 200 mg, Posterior/medial): −233%
End Points Mean ± SEM (SCW + 200 mg, Posterior/medial): 17.1 ± 1.8 1/mm2
Multiple points % loss (SCW + 200 mg, Posterior/medial): 29%
Multiple points Mean ± SEM (SCW + 200 mg, Posterior/medial): 13.9 ± 1.8 1/mm2
Node-node struts % loss (SCW + 200 mg, Posterior/medial): 23%
Node-node struts Mean ± SEM (SCW + 200 mg, Posterior/medial): 2.1 ± 0.3 mm/mm2
Total Strut length % loss (SCW + 200 mg, Posterior/medial): 12%
Total Strut length Mean ± SEM (SCW + 200 mg, Posterior/medial): 5.6 ± 0.3 mm/mm2
Subchondral Plate Thickness (SCW + GlcNBu High, lateral epiphysis of proximal tibia): 0.11 ± 0.04 mm
Subchondral Plate Thickness (SCW + GlcNBu High, medial epiphysis of proximal tibia): 0.07 ± 0.04 mm
Subchondral Plate Thickness (SCW + GlcNBu Low, lateral epiphysis of proximal tibia): 0.10 ± 0.04 mm
Subchondral Plate Thickness (SCW + GlcNBu Low, medial epiphysis of proximal tibia): 0.07 ± 0.03 mm
decrease of Subchondral Plate Thickness in arthritis (SCW-arthritis rats, GlcNBu treatment, especially high dose): minimized by GlcNBu treatment
bone connectivity (SCW-arthritis rats, low and high dose GlcNBu): dose-dependent increase in bone connectivity
length of node-to-node struts, untreated arthritis-induced group to high dose group (medial side of the proximal epiphysis, high dose, p=0.034): significant increase
